# Data published in patent US10870876B2, “Method for detecting a presence or absence of at least one first zone of inhibition” (BIOMÉRIEUX, priority 2015, dated 2020).
# Legend:
# [1] = test system: Staphylococcus aureus ATCC 25923; assay: Disk-diffusion test with ampicillin disk, inoculation by flooding or by droplets along an axis; assay type: cell-based; details: disk containing 10 pig of ampicillin, 0.5 McFarland, 37° C. for 6 hours 30 minutes; similar for flooding and droplets; EUCAST threshold R 18 mm
# From the text: A conventional test of sensitivity is the disk-diffusion test, often referred to as the Kirby-Bauer method. This standardized method involves the inoculation of an agar culture medium (for example a 90 mm or 150 mm Mueller-Hinton agar) with a sample, generally standardized to 0.5 McFarland, obtained from a microbial isolate. The inoculation may be performed by conventional manual methods, by means of a swab or a loop. Alternatively, the inoculation may be performed by flooding the agar with a suspension standardized to one tenth of 0.5 McFarland, followed by removal of the excess sample. Following the inoculation, one or more paper disks impregnated with defined concentrations of antibiotics are deposited on the surface of the agar. After an incubation period, generally from 16 to 20 hours at 35° C., the diameter of the zone(s) of inhibition around the disks makes it possible to determine the sensitivity of the microorganism present in the inoculated sample to each of the antimicrobial agents impregnated in each disk. Due to the standardization of the Kirby-Bauer method, the results of this method are analyzed by comparing the diameter of each of the zones of inhibition with the recommendations published by regulatory bodies such as NCCLS (National Committee for Clinical Laboratory Standards) or EUCAST (European Committee on Antimicrobial Susceptibility Testing). […]
# [2] = test system: Escherichia coli ATCC 25922; assay: Etest strip MIC, sample deposited by smearing with a filtration sampling tool along two axes; assay type: cell-based; details: smear deposition, incubated at 35° C., shadowgraphy images from 3 h 30; visual examination at 6 h 30 confirms
# From the text: A third method of implementation of the invention is illustrated by FIGS. 11a, 11b and 12. In this method, the sample is deposited by smearing on the surface of the culture medium (e.g. agar in a Petri dish with a diameter greater than or equal to 9 cm) by means of a sampling tool such as described in the international application published under the number WO2012/083150. Such an integrated device makes it possible to carry out one or more filtration steps and also to transfer a liquid sample. Said device comprises a tubular portion, one of the ends of which is covered with a filtration material such as a membrane, said filtration material being arranged outside this end and covering it totally. The other end of the tubular portion is able to be connected to a suction or dispensing means such as a vacuum pump. The benefit of using such a tool especially being able to estimate the MIC of a sample originating from a positive blood culture bottle, that is to say one which has a result confirming the presence of microorganisms after a given incubation time. For this purpose, the sample may especially be prepared by taking off a volume of the positive blood culture, carrying out a step of lysis, for example chemical lysis, of the blood cells of the volume taken off, then by carrying out filtration of the lysed volume by suction at the surface of a membrane. […]
Compound,diameter D of the zone of inhibition [1],minimum inhibitory concentration [2]
"CC1(C)S[C@@H]2[C@H](NC(=O)[C@H](N)c3ccccc3)C(=O)N2[C@H]1C(=O)O [Ampicillin, ampicillin]",22 mm,
gentamicin,,1.5 mg/L
